Test results taken from ChEMBL document CHEMBL2439983, “The discovery and optimization of novel dual inhibitors of topoisomerase II and histone deacetylase” (Bioorg Med Chem, 2013).
Calls of active or inactive are those of the source. The rule behind the calls is not given here.

Assays:
[1] = target: T1, Protein deacetylase HDAC6 (Homo sapiens, UniProt Q9UBN7); assay: Inhibition of human recombinant HDAC6 expressed in baculovirus infected insect high5 cells using Boc-Lys (epsilon-acetyl)-AM) as substrate after 3 to 24 hrs by fluorescence assay
T1 sequence (Q9UBN7 whole entry): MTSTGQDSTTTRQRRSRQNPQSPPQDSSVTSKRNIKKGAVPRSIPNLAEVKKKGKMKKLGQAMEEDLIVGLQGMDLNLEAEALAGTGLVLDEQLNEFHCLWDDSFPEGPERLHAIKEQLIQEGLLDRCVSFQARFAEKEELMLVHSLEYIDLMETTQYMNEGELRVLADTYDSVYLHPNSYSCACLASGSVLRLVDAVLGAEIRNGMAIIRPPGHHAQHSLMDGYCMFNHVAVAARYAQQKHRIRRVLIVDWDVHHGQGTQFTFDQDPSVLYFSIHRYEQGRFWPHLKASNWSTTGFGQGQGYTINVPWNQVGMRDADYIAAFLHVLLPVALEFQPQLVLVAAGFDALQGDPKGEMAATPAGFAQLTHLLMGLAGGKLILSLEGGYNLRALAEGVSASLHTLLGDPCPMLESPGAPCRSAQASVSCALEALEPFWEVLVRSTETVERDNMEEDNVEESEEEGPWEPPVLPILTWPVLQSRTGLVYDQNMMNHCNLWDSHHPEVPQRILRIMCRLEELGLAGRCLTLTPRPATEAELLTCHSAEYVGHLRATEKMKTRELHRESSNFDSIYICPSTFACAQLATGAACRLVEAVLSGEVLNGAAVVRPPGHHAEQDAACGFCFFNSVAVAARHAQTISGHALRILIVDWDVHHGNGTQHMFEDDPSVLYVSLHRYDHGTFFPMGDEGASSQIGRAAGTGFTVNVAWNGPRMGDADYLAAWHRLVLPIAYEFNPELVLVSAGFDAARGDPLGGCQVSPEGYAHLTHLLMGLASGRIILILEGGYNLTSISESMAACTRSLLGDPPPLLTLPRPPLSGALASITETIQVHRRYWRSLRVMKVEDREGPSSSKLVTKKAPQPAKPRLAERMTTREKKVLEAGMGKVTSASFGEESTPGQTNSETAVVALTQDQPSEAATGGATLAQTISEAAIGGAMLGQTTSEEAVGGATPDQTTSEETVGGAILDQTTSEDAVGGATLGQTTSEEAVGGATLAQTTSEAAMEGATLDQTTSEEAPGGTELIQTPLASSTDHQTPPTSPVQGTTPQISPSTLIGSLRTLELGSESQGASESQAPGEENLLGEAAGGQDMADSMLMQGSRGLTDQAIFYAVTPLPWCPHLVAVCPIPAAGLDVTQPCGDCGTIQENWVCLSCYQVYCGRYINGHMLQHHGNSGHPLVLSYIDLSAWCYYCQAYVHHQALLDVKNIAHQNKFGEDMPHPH

[2] = target: DNA topoisomerase 2-alpha (Homo sapiens) (UniProt P11388); assay: Inhibition of Topoisomerase 2 (unknown origin) assessed as impairment of pBR322 DNA decatenation at 100 uM after 30 mins by agarose gel electrophoresis
Chain of DNA topoisomerase 2-alpha (Homo sapiens) (P11388 whole entry): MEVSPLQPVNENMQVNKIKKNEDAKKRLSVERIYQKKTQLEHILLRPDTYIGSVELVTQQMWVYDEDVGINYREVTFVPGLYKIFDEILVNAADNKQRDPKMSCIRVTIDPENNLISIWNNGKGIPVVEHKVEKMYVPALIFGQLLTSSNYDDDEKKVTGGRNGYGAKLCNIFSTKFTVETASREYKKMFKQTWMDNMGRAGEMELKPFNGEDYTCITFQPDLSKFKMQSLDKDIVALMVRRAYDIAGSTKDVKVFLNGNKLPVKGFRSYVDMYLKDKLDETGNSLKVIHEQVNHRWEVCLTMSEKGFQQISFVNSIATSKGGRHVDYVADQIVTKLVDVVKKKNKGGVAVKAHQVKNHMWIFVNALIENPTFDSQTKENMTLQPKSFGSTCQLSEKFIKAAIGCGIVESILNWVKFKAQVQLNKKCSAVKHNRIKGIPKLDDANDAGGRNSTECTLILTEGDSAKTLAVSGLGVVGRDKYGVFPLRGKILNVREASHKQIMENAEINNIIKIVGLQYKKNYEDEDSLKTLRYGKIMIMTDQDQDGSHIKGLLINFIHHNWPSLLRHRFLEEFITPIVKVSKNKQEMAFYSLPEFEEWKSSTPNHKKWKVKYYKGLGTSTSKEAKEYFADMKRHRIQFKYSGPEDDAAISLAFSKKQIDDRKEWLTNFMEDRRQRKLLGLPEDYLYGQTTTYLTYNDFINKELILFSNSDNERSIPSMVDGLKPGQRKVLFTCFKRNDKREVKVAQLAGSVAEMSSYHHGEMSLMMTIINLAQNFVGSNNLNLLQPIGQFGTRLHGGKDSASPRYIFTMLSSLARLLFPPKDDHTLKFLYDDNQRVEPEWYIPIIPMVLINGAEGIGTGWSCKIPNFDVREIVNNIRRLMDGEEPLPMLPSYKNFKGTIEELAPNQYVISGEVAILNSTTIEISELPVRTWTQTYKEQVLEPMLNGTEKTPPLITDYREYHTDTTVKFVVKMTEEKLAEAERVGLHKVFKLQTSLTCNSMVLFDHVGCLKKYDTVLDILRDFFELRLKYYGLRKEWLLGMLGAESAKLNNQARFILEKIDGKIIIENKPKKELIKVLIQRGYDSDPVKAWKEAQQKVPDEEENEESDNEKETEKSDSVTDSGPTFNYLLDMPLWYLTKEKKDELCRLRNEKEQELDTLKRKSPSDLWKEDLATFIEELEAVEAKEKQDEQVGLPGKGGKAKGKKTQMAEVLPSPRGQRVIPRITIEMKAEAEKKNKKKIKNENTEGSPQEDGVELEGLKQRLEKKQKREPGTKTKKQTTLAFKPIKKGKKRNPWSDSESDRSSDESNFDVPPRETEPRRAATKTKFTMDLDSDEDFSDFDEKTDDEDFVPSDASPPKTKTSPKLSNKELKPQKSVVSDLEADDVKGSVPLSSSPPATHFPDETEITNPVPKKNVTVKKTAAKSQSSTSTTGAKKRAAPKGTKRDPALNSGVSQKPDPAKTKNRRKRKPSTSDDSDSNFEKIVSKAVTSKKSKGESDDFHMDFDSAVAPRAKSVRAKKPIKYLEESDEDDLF

Histone deacetylase 1 = Histone deacetylase 1 (Homo sapiens, UniProt Q13547); assay: Inhibition of human recombinant HDAC1 expressed in baculovirus infected insect high5 cells using Ac-Lys-Tyr-Lys (epsilon-acetyl)-AMC as substrate after 3 to 24 hrs by fluorescence assay
Chain of Histone deacetylase 1 (Q13547 whole entry): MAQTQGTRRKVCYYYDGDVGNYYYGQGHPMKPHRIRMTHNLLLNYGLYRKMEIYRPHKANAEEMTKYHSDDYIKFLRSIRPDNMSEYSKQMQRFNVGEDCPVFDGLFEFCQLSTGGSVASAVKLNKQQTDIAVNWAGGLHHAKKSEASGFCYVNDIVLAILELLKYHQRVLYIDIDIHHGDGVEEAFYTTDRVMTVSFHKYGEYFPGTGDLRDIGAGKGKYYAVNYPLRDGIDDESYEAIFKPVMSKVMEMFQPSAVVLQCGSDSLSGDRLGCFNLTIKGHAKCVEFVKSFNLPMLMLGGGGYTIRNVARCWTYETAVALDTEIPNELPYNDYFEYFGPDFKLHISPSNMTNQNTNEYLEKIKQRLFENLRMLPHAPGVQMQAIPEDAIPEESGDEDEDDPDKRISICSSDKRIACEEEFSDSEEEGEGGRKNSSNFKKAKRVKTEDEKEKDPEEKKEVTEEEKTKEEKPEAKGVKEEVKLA

HCT-116 = assay: cells; settings: Homo sapiens, HCT-116, 72 h
Description: Antiproliferative activity against human HCT116 cells assessed as cell viability after 72 hrs by MTT assay

Histone deacetylase 3 = Histone deacetylase 3 (Homo sapiens, UniProt O15379); assay: Inhibition of human recombinant HDAC3 expressed in baculovirus infected insect high5 cells using Ac-Lys-Tyr-Lys (epsilon-acetyl)-AMC as substrate after 3 to 24 hrs by fluorescence assay
Chain of Histone deacetylase 3 (O15379 whole entry): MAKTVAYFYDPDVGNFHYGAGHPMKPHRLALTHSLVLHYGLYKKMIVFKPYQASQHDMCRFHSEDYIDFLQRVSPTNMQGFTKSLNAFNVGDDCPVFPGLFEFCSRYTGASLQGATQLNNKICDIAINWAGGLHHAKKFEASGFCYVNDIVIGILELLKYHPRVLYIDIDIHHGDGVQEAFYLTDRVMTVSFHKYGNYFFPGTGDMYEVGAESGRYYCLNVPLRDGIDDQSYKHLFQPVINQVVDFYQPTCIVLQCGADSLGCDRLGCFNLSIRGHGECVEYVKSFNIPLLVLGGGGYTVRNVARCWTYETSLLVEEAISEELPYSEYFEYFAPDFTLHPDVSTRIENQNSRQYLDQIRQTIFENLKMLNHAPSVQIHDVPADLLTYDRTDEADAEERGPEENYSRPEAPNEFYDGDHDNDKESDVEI

Histone deacetylase 2 = Histone deacetylase 2 (Homo sapiens, UniProt Q92769); assay: Inhibition of HDAC2 (unknown origin)
Chain of Histone deacetylase 2 (Q92769 whole entry): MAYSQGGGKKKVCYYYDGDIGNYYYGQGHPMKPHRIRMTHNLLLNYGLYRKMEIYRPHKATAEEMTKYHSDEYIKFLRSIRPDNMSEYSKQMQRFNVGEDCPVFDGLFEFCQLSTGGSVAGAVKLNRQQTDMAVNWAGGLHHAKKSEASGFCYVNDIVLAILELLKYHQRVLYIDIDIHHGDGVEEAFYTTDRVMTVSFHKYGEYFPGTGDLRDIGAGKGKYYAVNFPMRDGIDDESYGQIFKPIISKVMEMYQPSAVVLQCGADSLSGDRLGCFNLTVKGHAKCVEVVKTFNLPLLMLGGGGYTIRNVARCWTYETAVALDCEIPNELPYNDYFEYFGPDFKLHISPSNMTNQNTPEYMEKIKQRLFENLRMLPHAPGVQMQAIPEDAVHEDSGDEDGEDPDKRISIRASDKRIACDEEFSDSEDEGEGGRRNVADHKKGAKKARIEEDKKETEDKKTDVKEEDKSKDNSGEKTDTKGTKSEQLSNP

A549 = assay: Antiproliferative activity against human A549 cells assessed as cell viability after 72 hrs by MTT assay; type: functional, cell-based; settings: A549, 72 h

SMILES | IC50 [1] [nM] | inhibition [2] | IC50 (Histone deacetylase 1) [nM] | IC50 (HCT-116) [µM] | IC50 (Histone deacetylase 3) [nM] | IC50 (Histone deacetylase 2) [µM] | IC50 (A549) [nM]
COc1cc([C@@H]2c3cc4c(cc3[C@@H](Nc3cccc(OCCCCCCC(=O)NO)c3)[C@H]3COC(=O)[C@H]23)OCO4)cc(OC)c1O | 5.6 | Active | 11 | 3.33 | 9.6 |  | 
COc1cc([C@@H]2c3cc4c(cc3[C@@H](Nc3cccc(NC(=O)CCCCCC(=O)NO)c3)[C@H]3COC(=O)[C@H]23)OCO4)cc(OC)c1O | 160 |  | 380 | 19.6 | 590 |  | 
COc1cc([C@@H]2c3cc4c(cc3[C@@H](Nc3ccc(NC(=O)CCCCCCC(=O)NO)cc3)[C@H]3COC(=O)[C@H]23)OCO4)cc(OC)c1O | 90 | Active | 210 | 1.27 | 230 | 0.14 | 18600
COc1cc([C@@H]2c3cc4c(cc3[C@@H](Nc3cccc(OCCCCCC(=O)NO)c3)[C@H]3COC(=O)[C@H]23)OCO4)cc(OC)c1O | 15 |  | 45 | 5.72 | 81 |  | 
COc1cc([C@@H]2c3cc4c(cc3[C@@H](Nc3ccc(NC(=O)CCCCCC(=O)NO)cc3)[C@H]3COC(=O)[C@H]23)OCO4)cc(OC)c1O | 130 |  | 590 | 2.94 | 520 |  | 
COc1cc([C@@H]2c3cc4c(cc3[C@@H](Nc3cccc(NC(=O)CCCCCCC(=O)NO)c3)[C@H]3COC(=O)[C@H]23)OCO4)cc(OC)c1O | 40 | Active | 100 | 8.57 | 130 |  | 
COc1cc([C@@H]2c3cc4c(cc3[C@@H](O[C@@H]3O[C@@H]5CO[C@@H](C)O[C@H]5[C@H](O)[C@H]3O)[C@H]3COC(=O)[C@H]23)OCO4)cc(OC)c1O [ETOPOSIDE] |  | Active | > 34000 | 0.87 |  |  | 
COc1cc([C@@H]2c3cc4c(cc3[C@@H](Nc3ccc(OCCCCCCCC(=O)NO)cc3)[C@H]3COC(=O)[C@H]23)OCO4)cc(OC)c1O | 53 |  | 87 | 3.72 | 53 |  | 
COc1cc([C@@H]2c3cc4c(cc3[C@@H](Nc3ccccc3OCCCCCCC(=O)NO)[C@H]3COC(=O)[C@H]23)OCO4)cc(OC)c1O | 27 | Active | 72 | 11.3 | 155 |  | 
COc1cc([C@@H]2c3cc4c(cc3[C@@H](Nc3ccccc3OCCCCC(=O)NO)[C@H]3COC(=O)[C@H]23)OCO4)cc(OC)c1O | 84 |  | 369 | 16.5 | 899 |  | 
COc1cc([C@@H]2c3cc4c(cc3[C@@H](Nc3ccc(OCCCCC(=O)NO)cc3)[C@H]3COC(=O)[C@H]23)OCO4)cc(OC)c1O | 88 |  | 125 | 5.26 | 242 |  | 
COc1cc([C@@H]2c3cc4c(cc3[C@@H](Nc3cccc(OCCCC(=O)NO)c3)[C@H]3COC(=O)[C@H]23)OCO4)cc(OC)c1O | 405 |  | 385 | 29.4 | 767 |  | 
COc1cc([C@@H]2c3cc4c(cc3[C@@H](Nc3ccc(OCCCCCCC(=O)Nc5ccccc5N)cc3)[C@H]3COC(=O)[C@H]23)OCO4)cc(OC)c1O |  | Active | 14100 | 0.52 | 11600 | 10.4 | 1160
COc1cc([C@@H]2c3cc4c(cc3[C@@H](Nc3ccc(OCCCC(=O)NO)cc3)[C@H]3COC(=O)[C@H]23)OCO4)cc(OC)c1O | 214 |  | 243 | 5.37 | 193 |  | 
COc1cc([C@@H]2c3cc4c(cc3[C@@H](Nc3cccc(OCCCCC(=O)NO)c3)[C@H]3COC(=O)[C@H]23)OCO4)cc(OC)c1O | 42 |  | 93 | 6.29 | 111 |  | 
O=C(CCCCCCC(=O)Nc1ccccc1)NO |  | inactive |  |  |  |  | 
Nc1ccccc1NC(=O)c1ccc(CNc2nccc(-c3cccnc3)n2)cc1 [MOCETINOSTAT] |  | inactive |  | 1.57 |  |  | 
COc1cc([C@@H]2c3cc4c(cc3[C@@H](Nc3cccc(NC(=O)CCCCC(=O)NO)c3)[C@H]3COC(=O)[C@H]23)OCO4)cc(OC)c1O | 520 |  | 1430 | 14.1 | 2110 |  | 

Further compounds by falling IC50 (HCT-116), results first:

IC50 [1] [nM] | inhibition [2] | IC50 (Histone deacetylase 1) [nM] | IC50 (HCT-116) [µM] | IC50 (Histone deacetylase 3) [nM] | IC50 (Histone deacetylase 2) [µM] | IC50 (A549) [nM] | SMILES
357 |  | 578 | 28.9 | 1440 |  |  | COc1cc([C@@H]2c3cc4c(cc3[C@@H](Nc3ccccc3OCCCC(=O)NO)[C@H]3COC(=O)[C@H]23)OCO4)cc(OC)c1O
217 |  | 175 | 11.3 | 217 |  |  | COc1cc([C@@H]2c3cc4c(cc3[C@@H](Nc3ccccc3OCCCCCCCC(=O)NO)[C@H]3COC(=O)[C@H]23)OCO4)cc(OC)c1O
20 |  | 145 | 8.1 | 188 |  |  | COc1cc([C@@H]2c3cc4c(cc3[C@@H](Nc3ccccc3OCCCCCC(=O)NO)[C@H]3COC(=O)[C@H]23)OCO4)cc(OC)c1O
69 |  | 39 | 5.19 | 69 |  |  | COc1cc([C@@H]2c3cc4c(cc3[C@@H](Nc3cccc(OCCCCCCCC(=O)NO)c3)[C@H]3COC(=O)[C@H]23)OCO4)cc(OC)c1O
16 | Active | 29 | 5.03 | 49 |  |  | COc1cc([C@@H]2c3cc4c(cc3[C@@H](Nc3ccc(OCCCCCCC(=O)NO)cc3)[C@H]3COC(=O)[C@H]23)OCO4)cc(OC)c1O
26 |  | 207 | 4.92 | 69 |  |  | COc1cc([C@@H]2c3cc4c(cc3[C@@H](Nc3ccc(OCCCCCC(=O)NO)cc3)[C@H]3COC(=O)[C@H]23)OCO4)cc(OC)c1O
1060 |  | 2830 | 3.76 | 1690 |  |  | COc1cc([C@@H]2c3cc4c(cc3[C@@H](Nc3ccc(NC(=O)CCCCC(=O)NO)cc3)[C@H]3COC(=O)[C@H]23)OCO4)cc(OC)c1O
 |  |  | 0.92 |  | 53.5 | 1110 | COc1cc([C@@H]2c3cc4c(cc3[C@@H](Nc3cccc(OCCCCCCC(=O)Nc5ccccc5N)c3)[C@H]3COC(=O)[C@H]23)OCO4)cc(OC)c1O
